Experiment [1] relates to Escherichia coli. The experiment in a line: Antibacterial activity against Escherichia coli. It counts as functional. The conditions noted are these: for MIC: Escherichia coli.
The subject of experiment [2] is Staphylococcus aureus. The experiment in a line: Antibacterial activity against Staphylococcus aureus. The experiment is classed as functional. Particulars: for MIC: Staphylococcus aureus.

Values after ≈ are worked out from the molar mass of the structure shown.

As to `O=C(CSc1nnc(Cn2nnc3ccccc32)o1)Nc1ccc(Cl)cc1`, in experiment [1], the “-logMIC” value is given as 6.6031 and 100 µg/mL (≈ 249 µM) was the least that counted as inhibitory (MIC). Also, in experiment [2], the “-logMIC” value was 6.6737 and the MIC (in general, the lowest concentration found to suppress growth) turned out to be 85 µg/mL (≈ 212 µM).
In the case of `O=C(CSc1nnc(-c2cccnc2)o1)Nc1ccc(Cl)cc1`, in experiment [1], the “-logMIC” value worked out at 6.5403 and the MIC amounted to 100 µg/mL (≈ 288 µM). Further, in experiment [2], the “-logMIC” value came to 6.41 and the MIC was 135 µg/mL (≈ 389 µM).
For the molecule `O=C(CSc1nnc(-c2cccnc2)o1)N1CCCCC1`, in experiment [1], the “-logMIC” value worked out at 6.229 and the MIC is 180 µg/mL (≈ 591 µM). Also, the MIC in experiment [2] was 155 µg/mL (≈ 509 µM).
For the molecule `COc1ccc(NC(=O)CSc2nnc(-c3cccnc3)o2)cc1`, the “-logMIC” value in experiment [1] was 6.3579; in experiment [2], 6.3879. In addition, the MIC in experiment [1] was determined as 150 µg/mL (≈ 438 µM); in experiment [2], 140 µg/mL (≈ 409 µM).
For `O=C(CSc1nnc(-c2cccnc2)o1)Nc1ccc(Br)cc1` the same measures were 6.6379, 6.4953, 90 µg/mL (≈ 230 µM) and 125 µg/mL (≈ 319 µM).
For `COc1ccc(NC(=O)CSc2nnc(Cn3nnc4ccccc43)o2)cc1` the same measures were 6.5185, 6.5008, 120 µg/mL (≈ 303 µM) and 125 µg/mL (≈ 315 µM).
As to `O=C(CSc1nnc(Cn2nnc3ccccc32)o1)Nc1ccc(Br)cc1`, in experiment [1], the “-logMIC” value is 6.7733 and the MIC amounted to 75 µg/mL (≈ 168 µM). Further, in experiment [2], the “-logMIC” value is on record as 6.607 and the MIC stood at 110 µg/mL (≈ 247 µM).
As to `O=C(CSc1nnc(Cn2nnc3ccccc32)o1)Nc1c(Cl)cccc1Cl`, in experiment [1], the “-logMIC” value is recorded as 6.7354 and the lowest concentration to inhibit growth (MIC) was 80 µg/mL (≈ 184 µM). In addition, in experiment [2], the “-logMIC” value came out at 6.5778 and inhibition of growth (MIC) required 115 µg/mL (≈ 264 µM).
On to `Cc1cccc(C)c1NC(=O)CSc1nnc(Cn2nnc3ccccc32)o1`, for which, in experiment [1], the “-logMIC” value is 6.5163 and the lowest concentration to inhibit growth (MIC) was 120 µg/mL (≈ 304 µM). In experiment [2], the “-logMIC” value is listed as 6.4816 and the MIC was determined as 130 µg/mL (≈ 330 µM).
Turning to `O=C(CSc1nnc(Cn2nnc3ccccc32)o1)Nc1ccc(Cl)c(Cl)c1`, in experiment [1], the “-logMIC” value is reported as 6.6842 and the MIC came to 90 µg/mL (≈ 207 µM). In addition, in experiment [2], the “-logMIC” value is 6.5416 and it took 125 µg/mL (≈ 287 µM) to inhibit growth (MIC).
For `O=C(CCSc1nnc(Cn2nnc3ccccc32)o1)Nc1ccc(Cl)cc1`, in that order: 6.5378, 120 µg/mL (≈ 289 µM), 6.5378 and 120 µg/mL (≈ 289 µM).
Take `Cc1ccc(NC(=O)CCSc2nnc(Cn3nnc4ccccc43)o2)cc1`: the “-logMIC” value in experiment [1] is recorded as 6.4986; in experiment [2], 6.5541. Besides, the MIC amounted to 125 µg/mL (≈ 317 µM) in experiment [1] and 110 µg/mL (≈ 279 µM) in experiment [2].
On to `O=C(CCSc1nnc(Cn2nnc3ccccc32)o1)Nc1ccc([N+](=O)[O-])cc1`, for which, in experiment [1], the “-logMIC” value is recorded as 6.587 and the MIC stood at 110 µg/mL (≈ 259 µM). Besides, in experiment [2], the “-logMIC” value is given as 6.5677 and the MIC worked out at 115 µg/mL (≈ 270 µM).
For `O=C(CCSc1nnc(Cn2nnc3ccccc32)o1)Nc1ccc(F)cc1` the same measures were 6.6968, 80 µg/mL (≈ 201 µM), 6.5787 and 105 µg/mL (≈ 264 µM).
For `COc1ccc(NC(=O)CCSc2nnc(Cn3nnc4ccccc43)o2)cc1`, in that order: 6.6128, 100 µg/mL (≈ 244 µM), 6.6128 and 100 µg/mL (≈ 244 µM).
For `O=C(CCSc1nnc(Cn2nnc3ccccc32)o1)Nc1ccc(Br)cc1`, in that order: 6.6618, 100 µg/mL (≈ 218 µM), 6.7868 and 75 µg/mL (≈ 163 µM).
For `O=C(CCSc1nnc(Cn2nnc3ccccc32)o1)Nc1c(Cl)cccc1Cl`, the “-logMIC” value is 6.698 in experiment [1] and 6.5731 in experiment [2]. Moreover, the MIC is 90 µg/mL (≈ 200 µM) in experiment [1] and 120 µg/mL (≈ 267 µM) in experiment [2].
For `Cc1cccc(C)c1NC(=O)CCSc1nnc(Cn2nnc3ccccc32)o1` the same measures were 6.6107, 6.5693, 100 µg/mL (≈ 245 µM) and 110 µg/mL (≈ 269 µM).
For `O=C(CCSc1nnc(Cn2nnc3ccccc32)o1)Nc1ccc(Cl)c(Cl)c1` the same measures were 6.5731, 6.6109, 120 µg/mL (≈ 267 µM) and 110 µg/mL (≈ 245 µM).
Turning to `O=C(CSc1nnc(-c2cccnc2)o1)Nc1ccc([N+](=O)[O-])cc1`, in experiment [1], the “-logMIC” value stood at 6.3913 and the MIC came to 145 µg/mL (≈ 406 µM). Moreover, in experiment [2], the “-logMIC” value is reported as 6.3766 and the MIC was determined as 150 µg/mL (≈ 420 µM).
For `CCCNC(=O)CSc1nnc(-c2cccnc2)o1`, in that order: 6.3471, 125 µg/mL (≈ 449 µM), 6.444 and 100 µg/mL (≈ 359 µM).
Turning to `O=C(CSc1nnc(-c2cccnc2)o1)N1CCOCC1`, the “-logMIC” value is reported as 6.4443 in experiment [1] and 6.4065 in experiment [2]. For the same molecule, the MIC turned out to be 110 µg/mL (≈ 359 µM) in experiment [1] and 120 µg/mL (≈ 392 µM) in experiment [2].
Regarding `CCCCNC(=O)CSc1nnc(-c2cccnc2)o1`, in experiment [1], the “-logMIC” value is recorded as 6.4047 and inhibition of growth (MIC) required 115 µg/mL (≈ 393 µM). In experiment [2], the “-logMIC” value came to 6.4877 and the lowest concentration to inhibit growth (MIC) was 95 µg/mL (≈ 325 µM).
For `O=C(CCSc1nnc(-c2cccnc2)o1)Nc1ccc(F)cc1`, in that order: 6.3605, 150 µg/mL (≈ 436 µM), 6.3061 and 170 µg/mL (≈ 494 µM).
For `COc1ccc(NC(=O)CCSc2nnc(-c3cccnc3)o2)cc1` the same measures were 6.5514, 100 µg/mL (≈ 281 µM), 6.4053 and 140 µg/mL (≈ 393 µM).
For `O=C(CCSc1nnc(-c2cccnc2)o1)Nc1ccc([N+](=O)[O-])cc1` the same measures were 6.4902, 120 µg/mL (≈ 323 µM), 6.5694 and 100 µg/mL (≈ 269 µM).
In the case of `O=C(CCSc1nnc(-c2cccnc2)o1)Nc1ccc(Br)cc1`, the MIC in experiment [1] was 165 µg/mL (≈ 407 µM); in experiment [2], 150 µg/mL (≈ 370 µM).
Turning to `O=C(CCSc1nnc(-c2cccnc2)o1)Nc1ccc(Cl)cc1`, in experiment [1], the “-logMIC” value turned out to be 6.2349 and the MIC was determined as 80 µg/mL (≈ 222 µM). Also, in experiment [2], the “-logMIC” value was 6.5575 and the lowest concentration to inhibit growth (MIC) was 100 µg/mL (≈ 277 µM).
With `O=C(CCSc1nnc(-c2cccnc2)o1)Nc1c(Cl)cccc1Cl`, in experiment [1], the “-logMIC” value came to 6.4638 and the MIC is 170 µg/mL (≈ 430 µM). In addition, in experiment [2], the “-logMIC” value is on record as 6.4877 and it took 95 µg/mL (≈ 240 µM) to inhibit growth (MIC).
Regarding `CCCNC(=O)CCSc1nnc(-c2cccnc2)o1`, in experiment [1], the “-logMIC” value was 6.4069 and the MIC came to 110 µg/mL (≈ 376 µM). Moreover, in experiment [2], the “-logMIC” value was determined as 6.4445 and the MIC worked out at 115 µg/mL (≈ 393 µM).
The molecule `CCCCNC(=O)CCSc1nnc(-c2cccnc2)o1` came in with an MIC in experiment [1] of 125 µg/mL (≈ 408 µM). For the same molecule, in experiment [2], the “-logMIC” value is listed as 6.4246 and the MIC stood at 120 µg/mL (≈ 392 µM).
For `O=C(CCSc1nnc(-c2cccnc2)o1)N1CCOCC1`, in experiment [1], the “-logMIC” value was 6.3718 and the lowest concentration to inhibit growth (MIC) was 130 µg/mL (≈ 406 µM). For the same molecule, in experiment [2], the “-logMIC” value was 6.3396 and the MIC amounted to 140 µg/mL (≈ 437 µM).
For `Cc1ccc(NC(=O)CSc2nnc(Cn3nnc4ccccc43)o2)cc1` the same measures were 6.5384, 110 µg/mL (≈ 289 µM), 6.5006 and 120 µg/mL (≈ 315 µM).
For `O=C(CSc1nnc(Cn2nnc3ccccc32)o1)Nc1ccc([N+](=O)[O-])cc1`, in that order: 6.5531, 115 µg/mL (≈ 280 µM), 6.4677 and 140 µg/mL (≈ 340 µM).
For `O=C(CSc1nnc(Cn2nnc3ccccc32)o1)Nc1ccc(F)cc1` the same measures were 6.6549, 85 µg/mL (≈ 221 µM), 6.5843 and 100 µg/mL (≈ 260 µM).
For the molecule `O=C(CSc1nnc(-c2cccnc2)o1)Nc1ccc(F)cc1`, in experiment [1], the “-logMIC” value is given as 6.4216 and the MIC was 125 µg/mL (≈ 378 µM). Further, in experiment [2], the “-logMIC” value was 6.4046 and the lowest concentration to inhibit growth (MIC) was 130 µg/mL (≈ 394 µM).
